What was measured:
Conditions in all cases: 48 h
NOMO1 [1] = assay: cell viability relative to DMSO control; higher = less cytotoxic
Procedure, shortened: (§1)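 Library compounds in DMSO were pin-dosed into 1536-well plates (5 μl) holding NOMO1 or SEM (500 cells/well) or P12-Ichikawa (1000 cells/well) leukemia cells, across an 11-point threefold series of 47 μM to 0.79 nM. Each cell line had been adapted for at least four passages in each medium. CellTiter-Glo One luminescence was read after 48 h at 37°C. Viability is the per-plate percentage relative to DMSO wells, with cell-free wells as background.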

P12-Ichikawa [2] = assay: as above
Procedure, shortened: as §1

SEM cells [3] = assay: as above
Procedure, shortened: as §1

NOMO1 [4] = assay: AUC of viability dose-response curve (% viability x log10 dose units); higher = less sensitive
Procedure, shortened: (§2)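 Leukemia cells adapted to each medium were seeded at 500 or 1000 cells/well in 1536-well plates and dosed with library compounds in DMSO at 11 threefold doses from 47 μM to 0.79 nM for 48 h at 37°C. CellTiter-Glo One luminescence was normalised per plate to DMSO and cell-free wells, then fitted with a four-parameter log-logistic model over log10 doses. Area under the curve was taken from this fit by the trapezoidal rule, with curves above full viability scaled and curves failing quality control removed.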

P12-Ichikawa [5] = assay: as above
Procedure, shortened: as §2

SEM cells [6] = assay: as above
Procedure, shortened: as §2

COC1=CC=C2Nc3cc(Cl)ccc3C(N=C3C=C(CN4CCCC4)C(=O)C(CN4CCCC4)=C3)=C2N1
cell viability [%]
Conditions	NOMO1 [1]	P12-Ichikawa [2]	SEM cells [3]
HPLM + 10% dialyzed FBS, 0.000781 µM	–	116	90.6
HPLM + 10% dialyzed FBS, 0.00234 µM	–	116	113
HPLM + 10% dialyzed FBS, 0.00702 µM	–	116	103
HPLM + 10% dialyzed FBS, 0.0211 µM	–	122	105
HPLM + 10% dialyzed FBS, 0.0632 µM	–	123	107
HPLM + 10% dialyzed FBS, 0.19 µM	–	123	101
HPLM + 10% dialyzed FBS, 0.569 µM	–	120	106
HPLM + 10% dialyzed FBS, 1.71 µM	–	127	111
HPLM + 10% dialyzed FBS, 5.12 µM	–	124	117
HPLM + 10% dialyzed FBS, 15.4 µM	–	117	61.5
HPLM + 10% dialyzed FBS, 46.1 µM	–	103	7.01
RPMI 5 mM glucose + 10% FBS, 0.000781 µM	105	110	107
RPMI 5 mM glucose + 10% FBS, 0.00234 µM	103	131	112
RPMI 5 mM glucose + 10% FBS, 0.00702 µM	120	114	120
RPMI 5 mM glucose + 10% FBS, 0.0211 µM	110	130	110
RPMI 5 mM glucose + 10% FBS, 0.0632 µM	133	133	115
RPMI 5 mM glucose + 10% FBS, 0.19 µM	127	130	110
RPMI 5 mM glucose + 10% FBS, 0.569 µM	125	133	121
RPMI 5 mM glucose + 10% FBS, 1.71 µM	135	132	113
RPMI 5 mM glucose + 10% FBS, 5.12 µM	116	129	121
RPMI 5 mM glucose + 10% FBS, 15.4 µM	119	122	79
RPMI 5 mM glucose + 10% FBS, 46.1 µM	119	87.6	50.3
RPMI 5 mM glucose + 10% dialyzed FBS, 0.000781 µM	–	113	83.1
RPMI 5 mM glucose + 10% dialyzed FBS, 0.00234 µM	–	123	108
RPMI 5 mM glucose + 10% dialyzed FBS, 0.00702 µM	–	120	108
RPMI 5 mM glucose + 10% dialyzed FBS, 0.0211 µM	–	126	102
RPMI 5 mM glucose + 10% dialyzed FBS, 0.0632 µM	–	120	102
RPMI 5 mM glucose + 10% dialyzed FBS, 0.19 µM	–	115	115
RPMI 5 mM glucose + 10% dialyzed FBS, 0.569 µM	–	127	115
RPMI 5 mM glucose + 10% dialyzed FBS, 1.71 µM	–	125	80.4
RPMI 5 mM glucose + 10% dialyzed FBS, 5.12 µM	–	115	105
RPMI 5 mM glucose + 10% dialyzed FBS, 15.4 µM	–	117	56.4
RPMI 5 mM glucose + 10% dialyzed FBS, 46.1 µM	–	93	24

AUC of viability dose-response curve
Conditions	NOMO1 [4]	P12-Ichikawa [5]	SEM cells [6]
HPLM + 10% dialyzed FBS	472	472	435
RPMI 5 mM glucose + 10% FBS	459	468	449
RPMI 5 mM glucose + 10% dialyzed FBS	475	469	437

CC#C[C@]1(O)CC[C@H]2[C@@H]/3CCC/4=C/C(=O)CCC4=C3[C@H](C[C@]12C)C5=CC=C(C=C5)N(C)C
cell viability [%]
Conditions	NOMO1 [1]	P12-Ichikawa [2]	SEM cells [3]
HPLM + 10% dialyzed FBS, 0.000781 µM	95.5	101	76.6
HPLM + 10% dialyzed FBS, 0.00234 µM	99.9	101	74.8
HPLM + 10% dialyzed FBS, 0.00702 µM	101	103	88.3
HPLM + 10% dialyzed FBS, 0.0211 µM	102	105	80.4
HPLM + 10% dialyzed FBS, 0.0632 µM	103	107	68.9
HPLM + 10% dialyzed FBS, 0.19 µM	96.1	110	87.4
HPLM + 10% dialyzed FBS, 0.569 µM	102	107	84.1
HPLM + 10% dialyzed FBS, 1.71 µM	94.8	98.7	89.9
HPLM + 10% dialyzed FBS, 5.12 µM	79.3	102	89.9
HPLM + 10% dialyzed FBS, 15.4 µM	9.1	75.1	86.1
HPLM + 10% dialyzed FBS, 46.1 µM	6.71	73.1	58.7
RPMI 5 mM glucose + 10% FBS, 0.000781 µM	83.5	95.6	76
RPMI 5 mM glucose + 10% FBS, 0.00234 µM	95.2	108	84.6
RPMI 5 mM glucose + 10% FBS, 0.00702 µM	91.3	105	99.9
RPMI 5 mM glucose + 10% FBS, 0.0211 µM	86.2	104	102
RPMI 5 mM glucose + 10% FBS, 0.0632 µM	90	105	96
RPMI 5 mM glucose + 10% FBS, 0.19 µM	88.1	93.9	86.3
RPMI 5 mM glucose + 10% FBS, 0.569 µM	93.4	106	105
RPMI 5 mM glucose + 10% FBS, 1.71 µM	95.5	87.4	92.7
RPMI 5 mM glucose + 10% FBS, 5.12 µM	73.2	83.4	96.1
RPMI 5 mM glucose + 10% FBS, 15.4 µM	9.23	61.2	73
RPMI 5 mM glucose + 10% FBS, 46.1 µM	5.91	30.8	58.3
RPMI 5 mM glucose + 10% dialyzed FBS, 0.000781 µM	90.7	80	87.2
RPMI 5 mM glucose + 10% dialyzed FBS, 0.00234 µM	81.5	94	91.6
RPMI 5 mM glucose + 10% dialyzed FBS, 0.00702 µM	88.7	92.7	101
RPMI 5 mM glucose + 10% dialyzed FBS, 0.0211 µM	97.2	98.9	110
RPMI 5 mM glucose + 10% dialyzed FBS, 0.0632 µM	110	102	92
RPMI 5 mM glucose + 10% dialyzed FBS, 0.19 µM	90.3	97.6	90.3
RPMI 5 mM glucose + 10% dialyzed FBS, 0.569 µM	93	93	96
RPMI 5 mM glucose + 10% dialyzed FBS, 1.71 µM	85.4	95.9	84
RPMI 5 mM glucose + 10% dialyzed FBS, 5.12 µM	70.9	83	92.8
RPMI 5 mM glucose + 10% dialyzed FBS, 15.4 µM	9.38	51.5	83
RPMI 5 mM glucose + 10% dialyzed FBS, 46.1 µM	6.16	39.6	49.5

AUC of viability dose-response curve
Conditions	NOMO1 [4]	P12-Ichikawa [5]	SEM cells [6]
HPLM + 10% dialyzed FBS	399	456	384
RPMI 5 mM glucose + 10% FBS	364	422	426
RPMI 5 mM glucose + 10% dialyzed FBS	370	411	432

From the supplement of paper PMC11451515
